# Values of other authors as cited in patent US20100261663A1, “Compositions Containing Harpagoside and Paeoniflorin and Methods for Treatment of Conditions Associated with Pain, Inflammation, Arthritis and Symptoms Thereof” (Restorative Remedies, priority 2009, published 2010).
# Where two headings read alike, the source gives them in different places.
# Legend:
# [1] = system: patients suffering from osteoarthritis of the knee and hip; conditions: 4 months
# [2] = system: patients with hip and knee osteoarthritis; conditions: after four months; extract 2,610 mg per day, diacerhein 100 mg per day; no significant differences
# [3] = system: human intestinal microflora
# [4] = for Cmax: human whole blood
# [5] = mice plasma, oral peony root extract
# Bacillus subtilis = Bacillus subtilis rec assay
# Salmonella = Salmonella microsome reversion assay
# [6] = system: intestinal bacteria in rat feces
# [7] = rats; for Cumulative biliary excretion: within 24 h
# [8] = not given; remark: listed apart in the source
# [9] = everted sac, at 60 min
# [10] = single oral 43.8 mg harpagoside/600 mg extract (study 1)
# [11] = single oral 100 mg harpagoside/400 mg extract (study 1)
# [12] = single oral 108 mg harpagoside/1200 mg extract (study 3)
# [13] = single oral 150 mg harpagoside/600 mg extract (study 2)
# [14] = single oral 162 mg harpagoside/1800 mg extract (study 3)
# [15] = single oral 200 mg harpagoside/800 mg extract (study 1)
# [16] = 5 mg kg^−1 intravenous, within 72 h
smiles,measurement,setting,value
CC(=O)Oc1cccc2c1C(=O)c1c(OC(C)=O)cc(C(=O)O)cc1C2=O [diacerhein],"diarrhea, patients",[1],26.7%
same,Spontaneous pain (10 cm visual analogue scale),"[1]; Harpadol 6 capsules/day, diacerhein 100 mg/day, no difference between treatments",significant improvement
same,Lequesne functional index,[1]; no statistical difference between treatments,progressive and significant reduction
same,osteoarthritis symptoms,[2],considerable improvements
C[C@]1(OC(=O)/C=C/c2ccccc2)C[C@@H](O)[C@]2(O)C=CO[C@@H](O[C@@H]3O[C@H](CO)[C@@H](O)[C@H](O)[C@H]3O)[C@@H]21 [harpagoside],transformation product,[3],transformed into the pyridine monoterpene alkaloid aucubinine B
same,harpagoside in whole blood,"[4]; after 600 mg Harpagophytum extract in study 3 (54 mg harpagoside), oral",no harpagoside was detected
same,Cmax,[4]; [10],15.4 ng/mL
same,Cmax,[4]; [11],16.4 ng/mL
same,Cmax,[4]; [12],8.2 ng/mL
same,Cmax,[4]; [13],32.2 ng/mL
same,Cmax,[4]; [14],27.8 ng/mL
same,Cmax,[4]; [15],50.1 ng/mL
same,clearance,"[4]; overall, oral",about 15 L/min
same,tmax,[4]; [10],2 h
same,AUC(0-t),[4]; [11],65.9 ng·h/mL
same,AUC(0-∞),[4]; [11],82 ng·h/mL
same,CL,[4]; [11],20.3 L/min
same,Terminal t1/2,[4]; [11],3.7 h
same,tmax,[4]; [11],2.5 h
same,AUC(0-t),[4]; [12],17.2 ng·h/mL
same,tmax,[4]; [12],1.3 h
same,AUC(0-t),[4]; [13],157.5 ng·h/mL
same,AUC(0-∞),[4]; [13],226 ng·h/mL
same,CL,[4]; [13],12.2 L/min
same,Terminal t1/2,[4]; [13],5.6 h
same,tmax,[4]; [13],1.3 h
same,AUC(0-t),[4]; [14],160.5 ng·h/mL
same,AUC(0-∞),[4]; [14],187.9 ng·h/mL
same,CL,[4]; [14],14.4 L/min
same,Terminal t1/2,[4]; [14],4.4 h
same,tmax,[4]; [14],1.8 h
same,AUC(0-t),[4]; [15],225.7 ng·h/mL
same,AUC(0-∞),[4]; [15],355.8 ng·h/mL
same,CL,[4]; [15],9.4 L/min
same,Terminal t1/2,[4]; [15],6.4 h
same,tmax,[4]; [15],2.5 h
same,LD50,mice,greater than 13.5 grams per kg of body weight
same,biological activity at acidic pH of gastric secretions,,significantly reduced
"C[C@@]12C[C@@]3(O)O[C@@H](O1)[C@]1(COC(=O)c4ccccc4)[C@H]3C[C@@]12O[C@@H]1O[C@H](CO)[C@@H](O)[C@H](O)[C@H]1O [paeoniflorin, 5β-[(Benzoyloxy)methyl]tetrahydro-5-hydroxy-2-Methyl-2,5-methano-1H-3,4-dioxacyclobuta[cd]pentalen-1α(2H)-yl-β-D-glucopyranoside]",mean terminal half-life (t(1/2)),[5],1.569 h
same,mutagenicity,Bacillus subtilis,nonmutagenic
same,LD50,Rodent-mouse; Intraperitoneal,3530 mg/kg
same,Toxic Effects,Rodent-mouse; Intraperitoneal,Behavioral-somnolence (general depressed activity)
same,LD50,Rodent-mouse; Intravenous,9530 mg/kg
same,Toxic Effects,Rodent-mouse; Intravenous,Behavioral-sleep. Behavioral-somnolence (general depressed activity)
same,mutagenicity,Salmonella,nonmutagenic
same,metabolites formed,[6],paeonimetabolin-1 (PM-1) and thio-paeonimetabolin-1 (PT-PM-1)
same,Cumulative biliary excretion,[7]; 0.5 mg kg^−1 intravenous,6.9 % of the dose
same,Cumulative biliary excretion,[7]; 0.5 mg kg^−1 oral,1.3 % of the dose
same,cumulative fecal excretion,[7]; [16],0.22 % of the dose
same,cumulative urinary excretion,[7]; [16],50.5 % of the dose
same,cumulative fecal excretion,"[7]; 5 mg kg^−1 oral, within 48 h",0.08 % of the dose
same,cumulative urinary excretion,"[7]; 5 mg kg^−1 oral, within 48 h",1.0 % of the dose
same,CLtot,[7]; intravenous 0.5 mg kg^−1,26.1 mL/min/kg
same,Vdss,[7]; intravenous 0.5 mg kg^−1,0.332 L/kg
same,mean terminal half-life,[7]; intravenous 0.5 mg kg^−1,0.183 h
same,CLtot,[7]; intravenous 2.0 mg kg^−1,31.2 mL/min/kg
same,Vdss,[7]; intravenous 2.0 mg kg^−1,0.384 L/kg
same,mean terminal half-life,[7]; intravenous 2.0 mg kg^−1,0.165 h
same,CLtot,[7]; intravenous 5.0 mg kg^−1,30.3 mL/min/kg
same,Vdss,[7]; intravenous 5.0 mg kg^−1,0.423 L/kg
same,mean terminal half-life,[7]; intravenous 5.0 mg kg^−1,0.21 h
same,metabolism in the gut wall,[8]; AUC after intraperitoneal 0.5 mg kg^−1 versus intraportal or intravenous,not metabolized in the gut wall
same,hepatic extraction ratio,"[8]; intraportal versus intravenous, 0.5 and 5 mg kg^−1",negligible
same,mean pulmonary extraction ratio,[8]; venous versus arterial AUC after intravenous 0.5 mg kg^−1,0.06
CCC1(c2ccccc2)C(=O)NC(=O)NC1=O [phenobarbital],intestinal permeability,[9],63.1%
